# Test results published in patent US7446117B2, “Cox-2 inhibiting pyridine derivatives” (Glaxo Group Limited, priority 2002, dated 2008).
# Molecular target: T1, microsomal h-COX2 (Homo sapiens, UniProt P35354)
# T1 construct: made in house; host or cells: baculovirus infected SF9 cells (microsomal preparation)
# T1 sequence (P35354 18-604): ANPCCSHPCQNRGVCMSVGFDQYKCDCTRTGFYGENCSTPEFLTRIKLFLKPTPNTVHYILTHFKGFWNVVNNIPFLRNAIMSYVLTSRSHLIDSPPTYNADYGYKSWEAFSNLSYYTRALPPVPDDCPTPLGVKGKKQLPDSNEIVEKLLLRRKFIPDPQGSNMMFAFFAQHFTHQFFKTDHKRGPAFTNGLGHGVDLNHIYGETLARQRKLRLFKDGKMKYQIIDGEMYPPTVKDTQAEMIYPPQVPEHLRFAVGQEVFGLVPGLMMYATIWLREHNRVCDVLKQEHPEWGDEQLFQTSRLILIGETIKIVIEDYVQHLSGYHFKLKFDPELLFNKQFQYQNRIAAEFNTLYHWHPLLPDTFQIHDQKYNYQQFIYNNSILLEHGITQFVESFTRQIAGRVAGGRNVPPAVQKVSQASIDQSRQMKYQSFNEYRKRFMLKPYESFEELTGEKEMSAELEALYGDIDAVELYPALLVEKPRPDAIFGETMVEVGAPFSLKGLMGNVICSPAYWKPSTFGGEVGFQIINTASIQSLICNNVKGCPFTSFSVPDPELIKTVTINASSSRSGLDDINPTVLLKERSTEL
# Assay: Microsomal assay: inhibitory activity against microsomal h-COX2
# Assay type: biochemical
# Details: microsomal preparation from baculovirus infected SF9 cells; 1 hour incubation with compound; 0.1 μM arachidonic acid, 10 minutes; PGE2 by EIA; read-out: IC50 values for inhibition of COX-2
# Procedure: Biological Data Microsomal Assay
# Inhibitory activity against microsomal h-COX2 was assessed against a microsomal preparation from baculovirus infected SF9 cells. An aliquot of microsomal preparation was thawed slowly on ice and a 1/40,000 dilution prepared from it into the assay buffer (sterile water, degassed with argon containing 100 mM HEPES (pH 7.4), 10 mM EDTA (pH7.4), 1 mM phenol, 1 mM reduced glutathione, 20 mg/ml gelatin and 0.001 mM Hematin). Once diluted the enzyme solution was then sonicated for 5 seconds (Branson sonicator, setting 4, 1 cm tip) to ensure a homogeneous suspension. 155 μl enzyme solution was then added to each well of a 96-well microtitre plate containing either 5 μl test compound (40× required test concentration) or 5 μl DMSO for controls. Plates were then mixed and incubated at room temperature for 1 hour. Following the incubation period, 40 μl of 0.5 μM arachidonic acid was added to each well to give a final concentration of 0.1 μM. Plates were then mixed and incubated for exactly 10 minutes (room temperature) prior to addition of 25 μl 1M HCl (hydrochloric acid) to each well to stop the reaction. 25 μl of 1M NaOH (sodium hydroxide) was then added to each well to neutralise the solution prior to determination of PGE2 levels by enzyme immunoassay (EIA).
row,Structure (SMILES),IC50
1,Cc1ccc(CNc2nc(-c3ccc(S(C)(=O)=O)cc3)cc(C)c2C#N)cn1 [Example 192],≤ 500 nM
2,Cc1noc(CNc2cc(C(F)(F)F)cc(-c3ccc(S(C)(=O)=O)cc3)n2)n1 [Example 213],≤ 500 nM
3,Cc1nc(CNc2cc(C(F)(F)F)cc(-c3ccc(S(C)(=O)=O)cc3)n2)no1 [Example 214],≤ 500 nM
4,CCc1cc(-c2ccc(S(C)(=O)=O)cc2)nc(OCc2ccccn2)c1C#N [Example 217],≤ 500 nM
5,Cc1cc(NCc2ccnn2C)nc(-c2ccc(S(C)(=O)=O)cc2)c1 [Example 218],≤ 500 nM
6,"CS(=O)(=O)c1ccc(-c2cc(C(F)(F)F)cc(NCC3CCCC3)n2)cc1 [Example 219, N-(cyclopentanemethyl)-4-(trifluoromethyl)-6-[4-(methylsulfonyl)phenyl]pyridine-2-amine]",≤ 500 nM
7,CCc1cc(-c2ccc(S(C)(=O)=O)cc2)nc(OCc2ccccn2)c1Cl [Example 220],≤ 500 nM
8,CCO[C@H]1CC[C@H](Nc2cc(C(F)(F)F)cc(-c3ccc(S(C)(=O)=O)cc3)n2)CC1 [Example 221],≤ 500 nM
9,"CCc1cc(-c2ccc(S(C)(=O)=O)cc2)nc(NCc2ccccn2)c1C#N [Example 222, 4-Ethyl-6-[4-(methylsulfonyl)phenyl]-2-[(2-pyridinylmethyl)amino]-3-pyridinecarbonitrile]",≤ 500 nM
10,CCc1cc(-c2ccc(S(C)(=O)=O)cc2)nc(NCc2ccc(C)cn2)c1C#N [Example 223],≤ 500 nM
11,CCc1cc(-c2ccc(S(C)(=O)=O)cc2)nc(NCc2ccc(C)nc2)c1C#N [Example 224],≤ 500 nM
12,CCc1cc(-c2ccc(S(C)(=O)=O)cc2)nc(NCc2cnn(C)c2)c1C#N [Example 228],≤ 500 nM
13,CCc1cc(-c2ccc(S(C)(=O)=O)cc2)nc(NCc2nc(C)cs2)c1C#N [Example 229],≤ 500 nM
14,CCc1cc(-c2ccc(S(C)(=O)=O)cc2)nc(NCC2CCCCC2)c1C#N [Example 231],≤ 500 nM
15,CCc1cc(NCc2ncnn2CC)nc(-c2ccc(S(C)(=O)=O)cc2)c1 [Example 232],≤ 500 nM
16,CCc1cc(NCc2ncnn2C)nc(-c2ccc(S(C)(=O)=O)cc2)c1 [Example 233],≤ 500 nM
17,"CCn1ncnc1CNc1cc(C)cc(-c2ccc(S(C)(=O)=O)cc2)n1 [Example 234, N-[(1-ethyl-1H-1,2,4-triazol-5-yl)methyl]-4-methyl-6-[4-(methylsulfonyl)phenyl]pyridine-2-amine]",≤ 500 nM
18,CCn1ncnc1CNc1cc(C(F)(F)F)cc(-c2ccc(S(C)(=O)=O)cc2)n1 [Example 235],≤ 500 nM
19,"CCc1cc(-c2ccc(S(C)(=O)=O)cc2)nc(OCc2ccc(C)nc2)c1C#N [Example 236, 4-Ethyl-2-{[(6-methyl-3-pyridinyl)methyl]oxy}-6-[4-(methylsulfonyl)phenyl]-3-pyridinecarbonitrile]",≤ 500 nM

# The remaining lines, values ahead:
row,IC50,Structure (SMILES)
1,≤ 500 nM,CCN(Cc1ccccc1)c1cc(C(F)(F)F)cc(-c2ccc(S(C)(=O)=O)cc2)n1 [Example 193]
2,≤ 500 nM,CCOC(=O)c1c(CC)cc(-c2ccc(S(C)(=O)=O)cc2)nc1NCc1ccccc1 [Example 197]
3,≤ 500 nM,CS(=O)(=O)c1ccc(-c2cc(C(F)(F)F)cc(OCc3ccc(Br)cn3)n2)cc1 [Example 200]
4,≤ 500 nM,CS(=O)(=O)c1ccc(-c2cc(C(F)(F)F)cc(OCc3ccncc3Br)n2)cc1 [Example 201]
5,≤ 500 nM,Cc1cc(NCc2conc2C)nc(-c2ccc(S(C)(=O)=O)cc2)c1 [Example 202]
6,≤ 500 nM,CCc1cc(NCc2nccn2CC)nc(-c2ccc(S(C)(=O)=O)cc2)c1 [Example 204]
7,≤ 500 nM,Cc1cc(-c2ccc(S(C)(=O)=O)cc2)nc(N(C)Cc2nccn2C)c1C#N [Example 205]
8,≤ 500 nM,CS(=O)(=O)c1ccc(-c2cc(C(F)(F)F)cc(N[C@H]3CC[C@@H](C)CC3)n2)cc1 [Example 206]
9,≤ 500 nM,CS(=O)(=O)c1ccc(-c2cc(C(F)(F)F)cc(N[C@H]3CC[C@H](C)CC3)n2)cc1 [Example 207]
10,≤ 500 nM,CS(=O)(=O)c1ccc(-c2cc(C(F)(F)F)cc(NCc3ccccn3)n2)cc1 [Example 208]
11,≤ 500 nM,CS(=O)(=O)c1ccc(-c2cc(C(F)(F)F)cc(NC3CCCCCC3)n2)cc1 [Example 209]
12,≤ 500 nM,Cc1cc(-c2ccc(S(C)(=O)=O)cc2)nc(NCc2ccccn2)c1C#N [Example 210]
13,≤ 500 nM,CCC(CC)Nc1cc(C(F)(F)F)cc(-c2ccc(S(C)(=O)=O)cc2)n1 [Example 211]
14,≤ 500 nM,CS(=O)(=O)c1ccc(-c2cc(C(F)(F)F)cc(NC3CCC3)n2)cc1 [Example 212]
